Laboratory results: US20100323016A1, “MODIFIED RELEASE FORMULATION AND METHODS OF USE” (priority 2008, published 2010)
In brackets after ≈: the same amount, converted by molar mass. Where two headings read alike, the source gives them in different places.

Assay: Solubility of retigabine in aqueous solution at varying pH
Format: physicochemical
Text: Solubility was low in pH ranges of between pH 4.0 to pH 12.0.

CCOC(=O)Nc1ccc(NCc2ccc(F)cc2)cc1N [retigabine, N-(2-amino-4-(fluorobenzylamino)-phenyl)carbamic acid ethyl ester]
solubility as a function of pH (above pH 3 (FIG. 5)): drops off precipitously | solubility (pH 3.0, aqueous conditions at 37° C.): nearly complete insolubility | solubility (pH 4.0 to pH 12.0, aqueous solution at 37° C.): low | solubility (simulated gastric fluid, pH 1.5, aqueous solution at 37° C., maximum solubility, read-out: solubility): ~16 mg/mL (≈ 52.7 mM) | solubility (simulated gastric fluid, pH 2.0, aqueous solution at 37° C., read-out: solubility): < 4 mg/mL
